The target in assay [1] is T1, FLT3 (Homo sapiens, UniProt P36888).
T1 construct: purchased Carna 08-145
T1 sequence (P36888 27-993): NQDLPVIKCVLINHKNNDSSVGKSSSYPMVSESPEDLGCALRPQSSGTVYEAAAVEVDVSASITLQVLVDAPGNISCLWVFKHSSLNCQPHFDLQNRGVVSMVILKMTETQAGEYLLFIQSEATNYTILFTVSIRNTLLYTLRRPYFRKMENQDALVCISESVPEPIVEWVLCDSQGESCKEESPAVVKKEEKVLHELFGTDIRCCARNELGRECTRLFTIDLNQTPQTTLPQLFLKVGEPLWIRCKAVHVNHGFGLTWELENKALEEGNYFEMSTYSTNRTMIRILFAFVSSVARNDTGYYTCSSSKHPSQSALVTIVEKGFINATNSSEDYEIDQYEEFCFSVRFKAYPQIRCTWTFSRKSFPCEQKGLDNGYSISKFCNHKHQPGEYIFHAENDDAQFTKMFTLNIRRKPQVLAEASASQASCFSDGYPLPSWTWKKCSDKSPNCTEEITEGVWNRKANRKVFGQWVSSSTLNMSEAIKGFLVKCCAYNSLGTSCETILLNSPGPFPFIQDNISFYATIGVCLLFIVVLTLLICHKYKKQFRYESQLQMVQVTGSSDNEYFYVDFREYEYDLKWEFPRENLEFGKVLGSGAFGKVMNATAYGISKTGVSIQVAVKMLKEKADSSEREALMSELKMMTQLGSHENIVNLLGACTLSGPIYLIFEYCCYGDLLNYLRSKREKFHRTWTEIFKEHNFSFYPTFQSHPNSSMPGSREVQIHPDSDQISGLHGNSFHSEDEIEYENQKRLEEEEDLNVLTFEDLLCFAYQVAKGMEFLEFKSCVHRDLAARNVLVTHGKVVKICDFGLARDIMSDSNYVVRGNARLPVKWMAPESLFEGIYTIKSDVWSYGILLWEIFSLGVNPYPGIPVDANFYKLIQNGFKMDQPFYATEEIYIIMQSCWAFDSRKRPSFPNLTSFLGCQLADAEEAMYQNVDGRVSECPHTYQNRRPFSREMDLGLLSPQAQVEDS
The experiment in a line: FLT3 kinase in vitro inhibitory activity experiment (Caliper mobility shift, conversion rate). The conditions noted are these: IC50 class, read-out: Enzyme activity FLT3. Type of assay: biochemical. The method, then:
Biological Test Example 1: FLT3 Kinase In Vitro Inhibitory Activity Experiment
Centrifuge (manufacturer: Eppendorf, model: 5430), microplate reader (manufacturer: Perkin Elmer, model: Caliper EZ Reader II), Echo 550 (manufacturer: Labcyte, model: Echo 550)
1. Kinase Reaction Process
• (1) 1×Kinase buffer was prepared. • (2) Preparation of the serial compound dilutions: the initial stock (the concentration of the tested compound was 1 μM) was diluted by 3-fold into 10 concentrations, and was single-well detected. The compounds were series diluted to solutions of 10 different concentration (100-folds final concentration) in 384-well plates. 250 nl of solution was transferred to each well of 384-well plate by Echo550. 100% DMSO (250 nl) was added to negative control wells and positive control wells respectively. • (3) Kinase solution (2.5 times final concentration) was prepared with 1×Kinase buffer. • (4) 10 μL of kinase solution (2.5 times final concentration) was added to compound wells and positive control wells respectively: 1×Kinase buffer (10 μL) was added to the negative control wells. • (5) The solution was centrifuged at 1000 rpm for 30 seconds, shaked and mixed, and incubated at room temperature for 10 minutes. • (6) The mixed solution of ATP and Kinase substrate 2 (25/15 times final concentration) was prepared with 1×Kinase buffer. • (7) 15 μL of mixed solution ATP and Kinase substrate 2 (25/15 times final concentration) was added to initiated the reaction. • (8) 384 well plate was centrifuged at 1000 rpm for 30 seconds, shaked and mixed, then incubated at room temperature for 30 minutes. • (9) Stop solution (30 μL) was added to stop kinase reaction, and the solution was centrifuged at 1000 rpm for 30 seconds, shaked and mixed. • (10) The conversion rate was read with Caliper EZ Reader II. 2. Data Analysis Formula for Calculation
Wherein: Conversion %_sample is the reading of the sample conversion; Conversion %_min: negative control well.

Assay [2] concerns MV4;11 cells. The experiment in a line: MV4;11 in vitro inhibition of proliferation assay (CellTiter-Glo, 72 hours). Format: cell-based. The note with it: IC50 class, read-out: Inhibitory activity of cell proliferation MV4;11. An excerpt: Biological Test Example 2: MV4;11 In Vitro Inhibition of Proliferation Assay
The MV4;11 cell lines were purchased from the cell bank of the Chinese Academy of Sciences, IMDM medium (Gibco, catalog number 12440), fetal bovine serum (Gibco, catalog number 10099141C), penicillin-streptomycin antibiotics (Gibco, catalog number 15140122), DMSO (Sigma, catalog number D2650), Celltiter-Glo kit (CTG) (Promega, catalog number G7573), 384-well clear flat-bottom black cell culture plate (Corning, catalog number 3764), D300e digital dispenser (Tecan, catalog number D300e), SpectraMax i3x microplate reader (MOLECULAR DEVICES, catalog number i3x)
MV4;11 cell was cultivated in IMDM, 10% fetal bovine serum, 1% penicillin-streptomycin antibiotics, and cell density was kept less than 1.0*10E6 cells per ml to ensure that it was always in logarithmic growth phase. Cell viability was greater than 95%.
The compounds to be tested was diluted by 3 times from 10 uM with DMSO to 9 concentrations. 60 nl diluted compound was added to the cell culture plate and three duplicates were set up.
The prepared MV4;11 cell suspension was added to the 384-well plate, and 20 microliters of cell suspension was added per well, i.e., each well contained 2000 MV4;11 cells, of which the final concentration of DMSO was 0.3%. The cell culture plate was placed in 37° C. and incubated in a 5% carbon dioxide incubator for 72 hours.
20 μL of Promega CellTiter-Glo reagent was added to per well, and the plate was incubated at room temperature for 10 minutes when the luminescence signals were stable. SpectraMax i3x microplate reader was used to read signals.
The original data was converted into inhibition rate, and the IC50 value (half inhibition concentration) of the compound was determined by fitting the nonlinear four-parameter curve.

Counter-ions that a name gives are not always drawn. Like-named read-outs stand apart in the source and are kept apart here.

For 29 molecules, IC50 results are on record in US12673947B2 (Cytosinlab Therapeutics Co., Ltd., priority 2020, dated 2026).

As to `CCc1nc2c(N)ncc(-c3cnn(C4C[C@H]5CC[C@@H](C4)N5)c3)c2nc1N[C@@H]1CC[C@H](O)C1` (single isomer, unassigned) [Compound 162], the IC50 in assay [1] is at most 10 nM; in assay [2], 100 to 500 nM. Taken in the same sequence, the figures for `CCc1nc2c(N)ncc(-c3cnn(C4C[C@H]5CC[C@@H](C4)N5)c3)c2nc1N[C@@H]1CC[C@H](O)C1` (single isomer, unassigned) [Compound 163] were at most 10 nM and 10 to 100 nM. As to `CCc1nc2c(N)ncc(-c3cnn(C4C[C@H]5CC[C@@H](C4)N5C)c3)c2nc1N[C@@H]1CC[C@H](O)C1` (single isomer, unassigned) [Compound 164], the IC50 in assay [1] was at most 10 nM; in assay [2] (Homo sapiens, MV4-11, 72 h) it was 10 to 100 nM. Consider `CCc1nc2c(N)ncc(-c3cnn(C4C[C@H]5CC[C@@H](C4)N5C)c3)c2nc1N[C@@H]1CC[C@H](O)C1` (single isomer, unassigned) [Compound 165], for which the IC50 in assay [1] and in assay [2] was at most 10 nM in each case. For `CCc1nc2c(N)ncc(-c3cnn(C4CCC(C)(O)CC4)c3)c2nc1N[C@@H]1CC[C@H](O)C1` (single isomer, unassigned) [Compound 284], the IC50 is at most 10 nM in assay [1] and at most 10 nM in assay [2] (Homo sapiens, MV4-11, 72 h). Consider `CCc1nc2c(N)ncc(-c3cnn(C4CCC(C)(O)CC4)c3)c2nc1N[C@@H]1CC[C@H](O)C1` (single isomer, unassigned) [Compound 285], for which the IC50 in assay [1] and in assay [2] was at most 10 nM in each case. As for `CCc1nc2c(N)nccc2nc1NC1CCOCC1` [Compound 1], the IC50 is over 500 nM in assay [1] and over 500 nM in assay [2] (Homo sapiens, MV4-11, 72 h).

In the case of `CCc1nc2c(N)ncc(Br)c2nc1NC1CCOCC1` [Compound 2, 8-Bromo-3-ethyl-N2-(tetrahydro-2H-pyran-4-yl)pyridino[3,4-b]pyrazine-2,5-diamine], the IC50 in assay [1] was 100 to 500 nM; in assay [2] (Homo sapiens, MV4-11, 72 h), over 500 nM.

Regarding `CCc1nc2c(N)ncc(-c3cccc(OC)c3)c2nc1NC1CCOCC1` [Compound 3], the IC50 in assay [1] was 10 to 100 nM; in assay [2] (Homo sapiens, MV4-11, 72 h) it was over 500 nM. Taken in the same sequence, the figures for `CCc1nc2c(N)ncc(-c3ccc(N4CCC(N5CCN(C)CC5)CC4)cc3)c2nc1NC1CCOCC1` [Compound 7] were at most 10 nM and 10 to 100 nM. Regarding `CCc1nc2c(N)ncc(-c3ccc(N4CCC(N5CCN(C)CC5)CC4)c(OC)c3)c2nc1NC1CCOCC1` [Compound 8, 3-ethyl-8-(3-methoxy-4-(4-(4-methylpiperazin-1-yl)piperidin-1-yl)phenyl)-N2-(tetrahydropyran-4-yl)pyrido[3,4-b]pyrazine-2,5-diamine trihydrochloride], the IC50 is at most 10 nM in assay [1] and 10 to 100 nM in assay [2] (Homo sapiens, MV4-11, 72 h). As to `CCc1nc2c(Cl)ncc(-c3ccc(N4CCC(N5CCNCC5)CC4)c(OC)c3)c2nc1NC1CCOCC1` [Compound 11], the IC50 in assay [1] is 10 to 100 nM; in assay [2] (Homo sapiens, MV4-11, 72 h), over 500 nM. Taken in the same sequence, the figures for `CCc1nc2c(N)ncc(-c3ccc(N4CCC(N5CCN(C)CC5)CC4)c(C)c3)c2nc1NC1CCOCC1` [Compound 13] were at most 10 nM and 10 to 100 nM. For `CCc1nc2c(N)ncc(-c3ccc(N4CCC(N5CCN(C)CC5)CC4)c(F)c3)c2nc1NC1CCOCC1` [Compound 14], the IC50 was at most 10 nM in assay [1] and 10 to 100 nM in assay [2] (Homo sapiens, MV4-11, 72 h). In the case of `CCc1nc2c(N)ncc(-c3ccc(N4CCC(N5CCN(C)CC5)CC4)c(C#N)c3)c2nc1NC1CCOCC1` [Compound 15], the IC50 in assay [1] was at most 10 nM; in assay [2] (Homo sapiens, MV4-11, 72 h) it was 10 to 100 nM.

As for `CCc1nc2c(N)ncc(-c3ccc(N4CCC(N5CCN(C)CC5)CC4)c(C(F)(F)F)c3)c2nc1NC1CCOCC1` [Compound 16], the IC50 in assay [1] was at most 10 nM; in assay [2] (Homo sapiens, MV4-11, 72 h), 10 to 100 nM. Taken in the same sequence, the figures for `CCc1nc2c(N)ncc(-c3ccc(N4CCC(N5CCN(C)CC5)CC4)c(OC(F)(F)F)c3)c2nc1NC1CCOCC1` [Compound 17] were at most 10 nM and 10 to 100 nM. `CCc1nc2c(N)ncc(-c3ccc(N4CCC(N5CCN(C)CC5)CC4)nc3)c2nc1NC1CCOCC1` [Compound 21]: the IC50 in assay [1] is 10 to 100 nM; in assay [2] (Homo sapiens, MV4-11, 72 h) it was 100 to 500 nM. Taken in the same sequence, the figures for `CCc1nc2c(N)ncc(-c3ccc(N4CCC(N5CCN(C)CC5)CC4)c(OC(C)C)c3)c2nc1NC1CCOCC1` [Compound 22] were at most 10 nM and 10 to 100 nM. In the case of `CCc1nc2c(N)ncc(-c3ccc(N4CCC(N5CCN(C)CC5)CC4)c(OCCOC)c3)c2nc1NC1CCOCC1` [Compound 23], the IC50 in assay [1] is at most 10 nM; in assay [2] (Homo sapiens, MV4-11, 72 h), 10 to 100 nM. Taken in the same sequence, the figures for `COc1cc(-c2cnc(N)c3nc(C)c(NC4CCOCC4)nc23)ccc1N1CCC(N2CCN(C)CC2)CC1` [Compound 26] were 10 to 100 nM and 100 to 500 nM. Taken in the same sequence, the figures for `COc1cc(-c2cnc(N)c3nc(C(C)C)c(NC4CCOCC4)nc23)ccc1N1CCC(N2CCN(C)CC2)CC1` [Compound 27] were at most 10 nM and 10 to 100 nM. Taken in the same sequence, the figures for `CCCc1nc2c(N)ncc(-c3ccc(N4CCC(N5CCN(C)CC5)CC4)c(OC)c3)c2nc1NC1CCOCC1` [Compound 28] were at most 10 nM and 10 to 100 nM. With `CCc1nc2c(N)ncc(-c3ccc(N4CCC5(CCN(C)CC5)CC4)c(C)c3)c2nc1NC1CCOCC1` [Compound 31], the IC50 in assay [1] was at most 10 nM; in assay [2] (Homo sapiens, MV4-11, 72 h) it was 10 to 100 nM. Consider `CCc1nc2c(N)ncc(-c3ccc(N4CCC5(CCN(C)CC5)CC4)c(OC)c3)c2nc1NC1CCOCC1` [Compound 32], for which the IC50 in assay [1] is at most 10 nM; in assay [2] (Homo sapiens, MV4-11, 72 h) it was 10 to 100 nM. As for `CCc1nc2c(N)ncc(-c3ccc(N4CCC(N5CCN(C)CC5)CC4)c(OC)c3)c2nc1NC1CCC(O)CC1` (stereo not drawn) [Compound 82], in assay [2] (Homo sapiens, MV4-11, 72 h), the IC50 was 10 to 100 nM. Same read-out and setting: as for `CCc1nc2c(N)ncc(-c3cnn(C4CCOCC4)c3)c2nc1N[C@@H]1CC[C@H](O)C1` [Compound 191], the figure is at most 10 nM. Consider `CCc1nc2c(N)ncc(-c3cnn(C4CCN(C)CC4)c3)c2nc1N(C)CC(C)(C)O` [Compound 264], for which the IC50 in assay [1] was at most 10 nM. With `CCc1nc2c(N)ncc(-c3cnn(-c4ccc(C#N)cn4)c3)c2nc1N[C@@H]1CC[C@H](O)C1` [Compound 300], the IC50 in assay [2] (Homo sapiens, MV4-11, 72 h) was at most 10 nM.
